Data reported in PMC8397291 (2021).

How the values were obtained:
Test in all cases: competitive native PAGE, 2a staining
Conditions in all cases: 100 mM KCl; TBE; 100 μM competitor with 20 μM c-MYC Pu22; 5 μM 2a
[1] = tested on: GC-rich ds-DNA (DNA, duplex) TGAGGGTGGGTAGGGTGGGTAA/TTACCCACCCTACCCACCCTCA
[2] = tested on: TBA (DNA, G4) GGTTGGTGTGGTTGG
[3] = tested on: s.c. ds-DNA (DNA, duplex) CAATCGGATCGAATTCGATCCGATTG

Measured: binding

CCN(CC)c1ccc2cc(C(=N)N)c(=O)oc2c1
no: all assays above
